The text below walks through data of US20040009464A1, “Methods for identifying compounds for inhibition of neoplastic lesions, and pharmacetical compositions containing such compounds” (priority 1998, published 2004).

Each structure is given as a SMILES string.

In one test the test system is polyps in APC patients. As to the kind of experiment: Clinical prevention trial in patients with adenomatous polyposis coli (APC). It counts as in vivo, human. From the text: The first clinical trial involved patients with APC. using exisulind. In that study, each patient had already had his/her colon removed, except for a small section of colon adjacent the rectum (where the small intestine was attached) to preserve rectal function. However, such a patient commonly forms polyps in the small remaining colonic section, which polyps require periodic removal (e.g., by electrocautery).
That trial where exisulind was selected was a prevention trial designed to evaluate the anti-neoplastic characteristics of the drug by comparing the cumulative number of new polyps formed over twelve months by the drug and placebo groups. Eligible patients were those who form between 9 and 44 polyps per year. Patients were fully ablated (had all polyps removed) at the start of the study, at the end of 6 months and at the end of 12 months. The study enrolled thirty-four eligible patients. […] Based on the median number of polyps produced in the first six months of the study, patients treated with exisulind developed approximately one-third the number of polyps as patients treated with placebo (median values 9 polyps/year and 26 polyps/year, respectively; p=0.013). […]

In test [1] the test system is β-catenin and PKG in SW480 cells. The test can be described thus: Western blot of β-catenin and PKG in SW480 cells. It is filed as cell-based, human. As for the experimental part:
SW480 cells treated with exisulind as described previously are harvested from the microfuge tubes by rinsing once with ice-cold PBS. The cells are lysed by modified RIPA buffer for 15 minutes with agitation. The cell lysate is spun down in a cold room. The supernatants are transferred to fresh microcentrifuge tubes immediately after spinning. BioRad DC Protein Assay (Temecula, CA) is performed to determine the protein concentrations in samples. The samples are normalized for protein concentration, as described above.
50 μg of each sample is loaded to 10% SDS gel. SDS-PAGE is performed, and the proteins then are transferred to a nitrocellulose membrane. The blotted nitrocellulose membrane are blocked in freshly prepared TBST containing 5% nonfat dry milk for one hour at room temperature with constant agitation.
A goat-anti-PKG primary antibody is diluted to the recommended concentration/dilution in fresh TBST/5% nonfat dry milk. The nitrocellulose membrane is placed in the primary antibody solution and incubated one hour at room temperature with agitation. The nitrocellulose membrane is washed three times for ten minutes each with TBST. […]
This observation was made by culturing SW480 cells with either 200, 400 or 600 μM exisulind or vehicle (0.1% DMSO). […] Immuno-reactive protein can be detected by Western blot. […]

For test [2], the system named is PKG in SW480 colon cancer cells. The test can be described thus: PKG activity assay on lysates of drug-treated SW480 cells. It counts as cell-based, human. The settings on record: SW480, 48 hrs, with and without added cGMP. From the text: That sequence is known and described in the literature below. […] One way to bind the PDE5 sequences to a solid phase is to express those sequences as a fusion protein of the PDE5 sequence and one member of an amino acid binding pair, and chemically link the other member of that amino acid binding pair to a solid phase (e.g., beads). One binding pair that can be used is glutathione S-transferase (“GST”) and glutathione (“GSH”), with the GST being expressed as a fusion protein with the PDE5 sequence described above, and the GSH bound covalently to the solid phase. In this fashion, the PDE5 sequence/GST fusion protein can be bound to a solid phase simply by passing a solution containing the fusion protein over the solid phase, as described below.
To assay a liquid sample believed to contain PKG using the PDE5-bound solid phase described above, the sample and the solid phase are mixed with phosphorylation buffer containing ^32P-γ-ATP. The solution is incubated for 30 minutes at 30° C. to allow for phosphorylation of the PDE5 sequence by PKG to occur, if PKG is present. […]
For each control or drug cell lysate sample to be evaluated, the reaction is started by adding phosphorylation buffer containing 10 μCi ^32P-γ-ATP solution (200 μM ATP, 4.5 mM MgCl; 5 mM KH2PO4; 5 mM K2HPO4;) to each mixture. […]

As for `CC1=C(CC(=O)O)c2cc(F)ccc2/C1=C\c1ccc(S(C)(=O)=O)cc1` [Exisulind, 5-fluoro-2-methyl-1-(p-methylsulfonylbenzylidene)-3-indenylacetic acid], the “median number of polyps, entire 12 months” value in the test with polyps in APC patients (entire 12 months of the study) is given as 18 polyps/year. Moreover, the “median number of polyps, first six months” value in the test on polyps in APC patients (first six months of the study) was 9 polyps/year. Moreover, in test [1] (SW480, 200, 400 or 600 μM, 48 hours, Western blot), the “reduction of β-catenin expression compared to control” value was 50%. Further, in test [1] (SW480, 48 hours), the “PKG level by Western blot” value is reported as “increase of PKG”. The “PKG activity relative to control” value in test [2] is “causes PKG activity to increase in a dose-dependent manner”.
